Like-named read-outs stand apart in the source and are kept apart here.

These results are taken from article PMC7179439, “Synthesis and Structure-Activity Relationship Studies of Hydrazide-Hydrazones as Inhibitors of Laccase from Trametes versicolor” (Molecules, 2020).

In assay [1] the target is laccase from Trametes versicolor. Put plainly: Laccase enzyme inhibition assay with syringaldazine as substrate. It counts as biochemical. Further details: key to The type of inhibition: a: competitive; b: uncompetitive; c: not determined; d: non-competitive. How it is done: The activity of laccase was determined using the procedure described by Leonowicz and Grzywnowicz. Basically, a standard reaction mixture contained the enzyme in McIlvaine buffer (1.5 mL, pH 5.3) in the presence or absence of tested compounds (0.1 mL) and substrate – syringaldazine (0.1 mL). Two water-miscible media were tested as suitable co-solvents for hydrazide-hydrazones which are poorly soluble in water. For that purpose, the stability of laccase (40 nM, McIlvaine buffer, pH 5.3) in methanol and DMSO (6.25% v/v) at 25 °C was investigated (see Supplementary Material). The samples containing the enzyme, with a volumetric buffer–co-solvent ratio of 15:1, were withdrawn in different time intervals for 1500 min. A reaction system contained the 1.6 mL of the collected sample and 0.1 mL of syringaldazine (5.9 µM). Laccase activity was determined spectrophotometrically (UV-VIS 1800, Shimadzu, Reinach, Switzerland) by monitoring the changes in absorbance at 525 nm resulted from oxidation of the substrate syringaldazine with an extinction coefficient ε0 = 65000 M^−1·cm^−1 [99]. Kinetic parameters, Km and k3 were determined for two protein concentrations (20 and 40 nM) and with the nine concentrations of syringaldazine (0.59 to 20 µM), using the Michaelis-Menten model, Equation (1):V = Vmax · CS/(Km + CS), k3 = Vmax/CE(1) where Km [µM], k3 [min^–1] – kinetic constants, Vmax – maximal velocity [µM·min^–1], CS – substrate concentration [µM], CE – enzyme concentration [µM].
The parameters of the function were estimated using the nonlinear least square method in Matlab (The Mathworks, R2019a Version 9.6, academic licence). The method was used simultaneously for datasets obtain for different enzyme concertation. The common minimum of error function was found for all considered datasets resulting in one common estimate of each model parameter. The goodness of fit was assessed using the coefficient of determination (R^2); the sum of squared errors (SSE) and root mean squared error (RMSE). The 25 hydrazide-hydrazones, 4-hydroxybenzoic acid (control, 4-HBA), 4-hydroxybenzohydrazide (4a – 4-HBAH), and sodium azide (control) were tested against laccase in the standard reaction mixture. Prior to the substrate addition, the laccase and tested compound were pre-incubated for 10 min at 25 °C. At least three inhibitor concentrations were used in each experiment. All measurements were performed in triplicate. To determine the type of inhibition Lineweaver–Burk transformation was used applying the following equations for competitive (2), uncompetitive (3) and non-competitive model (4). The parameters of these equations were estimated using the linear least square method. 1/V = Km/Vmax · (1 + Ci/Ki) · 1/CS + 1/Vmax(2) 1/V = Km/Vmax · 1/CS + 1/Vmax · (1 + Ci/Ki)(3) 1/V = Km/Vmax · (1 + Ci/Ki) · 1/CS + 1/Vmax · (1 + Ci/Ki)(4) where Km [µM]—Michaelis-Menten constant, Vmax—maximal velocity [µM·min^–1], Ki—inhibition constant [µM], CS—substrate concentration [µM], Ci—inhibitor concentration [µM].

Assay [2] has as its system laccase from Pleurotus eryngii. The following applies: cited from earlier work; for Ki: ABTS as substrate, mixed type of inhibition ref 85.
The target in assay [3] is laccase from Pleurotus ostreatus. The settings on record: ABTS as substrate ref 86; cited from earlier work.

In the case of `[N-]=[N+]=[N-].[Na+]` [NaN3, sodium azide], the Ki in assay [1] (25 °C, pH 5.3, syringaldazine substrate, 6.25% v/v organic co-solvent) is 2.72 ± 0.3 µM; in assay [2] (read-out: Kic) it was 17.6 µM; in assay [2] (read-out: Kiu), 10.6 µM; in assay [3] it was 16.5 µM. For the same molecule, the “The type of inhibition” value in assay [1] (Lineweaver-Burk transformation) is “d”. Besides, the “type of inhibition” value in assay [1] (Lineweaver-Burk transformation) is listed as “non-competitive”; in assay [2] (ABTS as substrate ref 85), “mixed type of inhibition”; in assay [3] it was “non-competitive”.
